Columns and labels:
[1] = target: T1, Voltage-dependent T-type calcium channel subunit alpha-1G (Homo sapiens, UniProt O43497); experiment: Inhibition of T-type CaV3.1 channel expressed in HEK293 cells assessed as inhibition of calcium current at 10 uM by fluorescence based HTS FDSS6000 assay; format: cell-based
[2] = target: T1, Voltage-dependent T-type calcium channel subunit alpha-1G; experiment: Inhibition of T-type CaV3.1 channel expressed in HEK293 cells assessed as inhibition of calcium current by automated patch-clamp assay; format: cell-based

T1 sequence (O43497 whole entry): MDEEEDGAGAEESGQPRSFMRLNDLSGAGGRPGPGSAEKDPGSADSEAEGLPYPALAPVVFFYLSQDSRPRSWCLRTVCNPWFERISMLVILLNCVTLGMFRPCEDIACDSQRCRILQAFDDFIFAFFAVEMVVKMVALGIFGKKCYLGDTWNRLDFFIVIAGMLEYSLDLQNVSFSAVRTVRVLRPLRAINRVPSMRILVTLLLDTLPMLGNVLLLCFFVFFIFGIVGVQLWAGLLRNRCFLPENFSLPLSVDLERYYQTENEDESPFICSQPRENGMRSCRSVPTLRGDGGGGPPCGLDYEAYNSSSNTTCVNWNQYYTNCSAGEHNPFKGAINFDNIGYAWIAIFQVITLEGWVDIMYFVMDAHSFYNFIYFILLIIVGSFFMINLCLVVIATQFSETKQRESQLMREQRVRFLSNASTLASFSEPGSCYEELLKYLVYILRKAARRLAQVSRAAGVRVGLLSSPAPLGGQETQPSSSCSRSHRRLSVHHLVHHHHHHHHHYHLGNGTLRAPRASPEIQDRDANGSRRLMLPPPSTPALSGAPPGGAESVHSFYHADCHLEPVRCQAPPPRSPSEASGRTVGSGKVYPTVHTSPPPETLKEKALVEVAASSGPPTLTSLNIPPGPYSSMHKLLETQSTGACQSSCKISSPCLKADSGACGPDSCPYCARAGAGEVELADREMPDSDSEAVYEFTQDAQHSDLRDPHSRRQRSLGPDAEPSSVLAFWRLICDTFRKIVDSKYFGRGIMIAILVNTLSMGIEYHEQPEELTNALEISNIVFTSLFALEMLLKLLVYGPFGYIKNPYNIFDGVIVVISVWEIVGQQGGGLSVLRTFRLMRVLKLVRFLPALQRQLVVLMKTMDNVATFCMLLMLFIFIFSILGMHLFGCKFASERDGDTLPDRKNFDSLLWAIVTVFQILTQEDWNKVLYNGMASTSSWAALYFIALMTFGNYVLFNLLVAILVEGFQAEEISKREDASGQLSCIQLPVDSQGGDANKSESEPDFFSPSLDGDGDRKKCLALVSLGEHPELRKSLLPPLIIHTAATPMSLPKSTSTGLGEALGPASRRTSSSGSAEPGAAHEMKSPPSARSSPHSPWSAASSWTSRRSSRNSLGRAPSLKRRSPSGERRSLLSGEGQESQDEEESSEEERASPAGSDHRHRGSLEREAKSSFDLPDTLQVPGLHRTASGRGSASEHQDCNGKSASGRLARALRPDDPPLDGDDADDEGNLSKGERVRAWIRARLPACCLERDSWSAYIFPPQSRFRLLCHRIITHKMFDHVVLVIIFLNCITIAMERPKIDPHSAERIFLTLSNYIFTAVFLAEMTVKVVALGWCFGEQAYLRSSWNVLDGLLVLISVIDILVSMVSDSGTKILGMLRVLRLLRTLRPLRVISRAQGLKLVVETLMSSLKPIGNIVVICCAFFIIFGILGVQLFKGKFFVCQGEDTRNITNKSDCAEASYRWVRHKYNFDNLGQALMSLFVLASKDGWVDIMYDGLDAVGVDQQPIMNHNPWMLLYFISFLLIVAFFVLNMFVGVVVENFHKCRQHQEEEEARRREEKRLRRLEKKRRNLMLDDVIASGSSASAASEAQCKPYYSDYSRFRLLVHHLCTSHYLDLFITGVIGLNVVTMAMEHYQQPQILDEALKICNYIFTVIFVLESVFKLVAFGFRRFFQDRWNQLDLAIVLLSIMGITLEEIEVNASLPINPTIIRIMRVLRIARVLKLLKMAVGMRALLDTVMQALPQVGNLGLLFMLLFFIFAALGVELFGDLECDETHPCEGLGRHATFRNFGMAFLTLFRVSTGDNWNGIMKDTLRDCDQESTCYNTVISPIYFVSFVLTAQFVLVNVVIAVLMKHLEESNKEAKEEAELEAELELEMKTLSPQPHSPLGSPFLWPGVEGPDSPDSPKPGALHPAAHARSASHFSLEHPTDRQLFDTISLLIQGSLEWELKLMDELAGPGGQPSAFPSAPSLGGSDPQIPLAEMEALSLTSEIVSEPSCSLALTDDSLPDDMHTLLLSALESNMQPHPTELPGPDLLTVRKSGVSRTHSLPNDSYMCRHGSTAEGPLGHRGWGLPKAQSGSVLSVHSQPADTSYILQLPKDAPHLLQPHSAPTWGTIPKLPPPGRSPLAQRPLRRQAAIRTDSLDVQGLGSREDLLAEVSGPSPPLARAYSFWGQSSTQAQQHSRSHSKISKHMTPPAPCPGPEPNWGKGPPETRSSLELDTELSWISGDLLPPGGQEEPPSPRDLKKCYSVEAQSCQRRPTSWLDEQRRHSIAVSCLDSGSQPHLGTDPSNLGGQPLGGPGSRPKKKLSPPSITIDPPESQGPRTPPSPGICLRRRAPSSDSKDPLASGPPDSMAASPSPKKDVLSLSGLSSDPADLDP

Row | SMILES | inhibition [1] | IC50 [2]
1 | CCCc1nc(-c2ccccc2)c(CNCCN2CCN(c3ccccc3C(F)(F)F)CC2)o1 | 54.6% | 2100 nM
2 | CCCc1nc(-c2ccccc2)c(CNCCN2CCN(c3ccc(Cl)cc3)CC2)o1 | 55.8% | 2820 nM
3 | CCCc1nc(-c2ccccc2)c(CNCCCN2CCN(c3ccc(F)cc3)CC2)o1 | 62.5% | 3210 nM
4 | CCCc1nc(-c2ccccc2)c(CNCCN2CCN(c3ccccc3)CC2)o1 | 54.3% | 10200 nM
5 | CCCc1nc(-c2ccccc2)c(CNCCN2CCN(c3ccc(C(F)(F)F)cc3)CC2)o1 | 58.7% | 1300 nM
6 | CCCc1nc(-c2ccccc2)c(CNCCN2CCN(c3ccccc3C)CC2)o1 | 51.3% | 4300 nM
7 | CCCc1nc(-c2ccccc2)c(CNCCN2CCN(C(c3ccccc3)c3ccccc3)CC2)o1 | 71.8% | 7470 nM
8 | CCCc1nc(-c2ccccc2)c(CNCCCN2CCN(c3ccccc3C(F)(F)F)CC2)o1 | 45% | 
9 | CCCc1nc(-c2ccccc2)c(CNCCN2CCN(c3cccc(OC)c3)CC2)o1 | 40.2% | 
10 | CCCc1nc(-c2ccccc2)c(CNCCN2CCN(c3ccccc3F)CC2)o1 | 46.5% | 
11 | Cc1nc(-c2ccccc2)c(CNCCN2CCN(C(c3ccccc3)c3ccccc3)CC2)o1 | 57.3% | 
12 | CCCc1nc(-c2ccccc2)c(CNCCN2CCN(c3cccc(F)c3)CC2)o1 | 62.3% | 3350 nM
13 | CCCc1nc(-c2ccccc2)c(CNCCN2CCN(c3ccc(OC)cc3)CC2)o1 | 51.5% | 9200 nM
14 | CCCc1nc(-c2ccccc2)c(CNCCCN2CCN(c3cccc(Cl)c3)CC2)o1 | 65.9% | 1750 nM
15 | CCCc1nc(-c2ccccc2)c(CNCCCN2CCN(c3ccccc3F)CC2)o1 | 54.4% | 16100 nM
16 | CCCc1nc(-c2ccccc2)c(CNCCCN2CCN(c3cccc(C)c3)CC2)o1 | 47.8% | 1190 nM
17 | Cc1nc(-c2ccccc2)c(CNCCCN2CCN(c3ccc(Cl)cc3)CC2)o1 | 38.1% | 
18 | CCCc1nc(-c2ccccc2)c(CNCCN2CCN(c3ccccc3Cl)CC2)o1 | 60.1% | 4370 nM
19 | CCCc1nc(-c2ccccc2)c(CNCCN2CCN(c3ccccc3OC)CC2)o1 | 39.7% | 
20 | CCCc1nc(-c2ccccc2)c(CNCCCN2CCN(c3ccc(C)cc3)CC2)o1 | 53.9% | 130000 nM
21 | CCCc1nc(-c2ccccc2)c(CNCCN2CCN(c3ccc(C)cc3C)CC2)o1 | 64.3% | 2220 nM

Row | SMILES | inhibition [1] | IC50 [2]
22 | CCCc1nc(-c2ccccc2)c(CNCCN2CCN(c3ccccn3)CC2)o1 | 48.1% | 
23 | CCCc1nc(-c2ccccc2)c(CNCCN2CCN(c3cccc(C(F)(F)F)c3)CC2)o1 | 56.3% | 1940 nM
24 | CCCc1nc(-c2ccccc2)c(CNCCCN2CCN(c3cccc(OC)c3)CC2)o1 | 36.4% | 
25 | CCCc1nc(-c2ccccc2)c(CNCCCN2CCN(c3ccccc3Cl)CC2)o1 | 64.7% | 2800 nM
26 | CCCc1nc(-c2ccccc2)c(CNCCCN2CCN(c3ccc(C)c(C)c3)CC2)o1 | 54.6% | 3020 nM
27 | CCCc1nc(-c2ccccc2)c(CNCCCN2CCN(c3ccccc3OC)CC2)o1 | 41% | 
28 | CCCc1nc(-c2ccccc2)c(CNCCN2CCN(c3ccc(C)c(C)c3)CC2)o1 | 67.9% | 2220 nM
29 | CCCc1nc(-c2ccccc2)c(CNCCCN2CCN(c3ccc(Cl)cc3)CC2)o1 | 63.2% | 1310 nM
30 | CCCc1nc(-c2ccccc2)c(CNCCN2CCN(c3cccc(C)c3)CC2)o1 | 43.1% | 
31 | CCCc1nc(-c2ccccc2)c(CNCCCN2CCN(c3ccc(C(F)(F)F)cc3)CC2)o1 | 51.6% | 7250 nM
32 | CCCc1nc(-c2ccccc2)c(CNCCCN2CCN(c3cccc(F)c3)CC2)o1 | 68.9% | 3030 nM
33 | CCCc1nc(-c2ccccc2)c(CNCCN2CCN(c3ccc(C)cc3)CC2)o1 | 48.1% | 
34 | CCCc1nc(-c2ccccc2)c(CNCCCN2CCN(c3cccc(C)c3C)CC2)o1 | 55.2% | 1780 nM
35 | CCCc1nc(-c2ccccc2)c(CNCCN2CCN(c3cccc(Cl)c3)CC2)o1 | 51.2% | 1450 nM
36 | CCCc1nc(-c2ccccc2)c(CNCCN2CCN(c3cccc(C)c3C)CC2)o1 | 66.7% | 1710 nM
37 | CCCc1nc(-c2ccccc2)c(CNCCCN2CCN(c3ccc(OC)cc3)CC2)o1 | 42.1% | 
38 | CCCc1nc(-c2ccccc2)c(CNCCCN2CCN(c3ccccc3C)CC2)o1 | 54.5% | 8750 nM
39 | CCCc1nc(-c2ccccc2)c(CNCCCN2CCN(c3ccccc3)CC2)o1 | 43.7% | 
40 | CCCc1nc(-c2ccccc2)c(CNCCCN2CCN(c3cccc(C(F)(F)F)c3)CC2)o1 | 51.6% | 650 nM
41 | CCCc1nc(-c2ccccc2)c(CNCCN2CCN(c3ccc(F)cc3)CC2)o1 | 54.1% | 7080 nM

— ChEMBL document CHEMBL1177782, “Synthesis and biological evaluation of oxazole derivatives as T-type calcium channel blockers” (Bioorg Med Chem Lett, 2010)
